Experimental data reported in ChEMBL document CHEMBL5226286, “The application of isatin-based multicomponent-reactions in the quest for new bioactive and druglike molecules” (Eur J Med Chem, 2021).
Values after ≈ are worked out from the molar mass of the structure shown. Active and inactive are the calls of the source. No cut-off for these calls is given here.

Tests used:
HepG2 = assay: cells; format: functional, cell-based; conditions: Homo sapiens
Description: Antiproliferative activity against human HepG2 cells

Staphylococcus aureus [1] = assay: Antibacterial activity against Staphylococcus aureus by disc diffusion method; format: functional
Bacillus subtilis [2] = assay: Antibacterial activity against Bacillus subtilis by disc diffusion method; format: functional
Escherichia coli [3] = assay: Antibacterial activity against Escherichia coli by disc diffusion method; format: functional
Pseudomonas aeruginosa [4] = assay: Antibacterial activity against Pseudomonas aeruginosa by disc diffusion method; format: functional
Aspergillus niger = assay: Antifungal activity against Aspergillus niger; format: functional
Aspergillus flavus = assay: Antifungal activity against Aspergillus flavus; format: functional
[5] = Antioxidant activity assessed as DPPH radical scavenging activity at 1 mg/ml relative to control; format: functional
A549 [6] = assay: Cytotoxicity against human A549 cells incubated for 48 hrs by MTT assay; format: functional, cell-based; conditions: A549, 48 h
HeLa = assay: Cytotoxicity against human HeLa cells incubated for 48 hrs by MTT assay; format: functional, cell-based
MCF7 [7] = assay: Cytotoxicity against human MCF7 cells incubated for 48 hrs by MTT assay; format: functional, cell-based; conditions: MCF7, 48 h
DU-145 = assay: Cytotoxicity against human DU-145 cells incubated for 48 hrs by MTT assay; format: functional, cell-based; conditions: DU-145, 48 h
MDA-MB-435 = assay: Antiproliferative activity against human MDA-MB-435 cells; format: functional, cell-based
[8] = test system: Mycobacterium tuberculosis; assay: Antimycobacterial activity against active stage of Mycobacterium tuberculosis H37Ra ATCC 25177 assessed as minimum inhibitory concentration by XTT assay; format: functional
[9] = test system: Mycobacterium tuberculosis; assay: Antimycobacterial activity against dormant stage of Mycobacterium tuberculosis H37Ra ATCC 25177 assessed as minimum inhibitory concentration by XTT assay; format: functional
Escherichia coli [10] = assay: Antibacterial activity against Escherichia coli NCIM 2688 measured after 8 hrs; format: functional
Pseudomonas aeruginosa [11] = assay: Antibacterial activity against Pseudomonas aeruginosa NCIM […] measured after 8 hrs; format: functional
Bacillus subtilis [12] = assay: Antibacterial activity against Bacillus subtilis NCIM 2079 measured after 12 hrs; format: functional
Staphylococcus aureus [13] = assay: Antibacterial activity against Staphylococcus aureus NCIM 2010 measured after 12 hrs; format: functional
Bacillus subtilis [14] = assay: Antibacterial activity against Bacillus subtilis ATCC 465; format: functional
Bacillus pumilus = assay: Antibacterial activity against Bacillus pumilus PTCC 1114; format: functional
Micrococcus luteus = assay: Antibacterial activity against Micrococcus luteus PTCC 1110; format: functional
Streptococcus mutans = assay: Antibacterial activity against Streptococcus mutans PTCC 1601; format: functional
[15] = test system: Staphylococcus epidermidis; assay: Antibacterial activity against Staphylococcus epidermidis ATCC 12228; format: functional
Staphylococcus aureus [16] = assay: Antibacterial activity against Staphylococcus aureus ATCC 25923; format: functional
Escherichia coli [17] = assay: Antimicrobial activity against Escherichia coli ATCC 25922; format: functional
Enterococcus faecalis = assay: Antibacterial activity against Enterococcus faecalis ATCC 29737; format: functional
Streptococcus pneumoniae = assay: Antibacterial activity against Streptococcus pneumoniae incubated for 24 to 48 hrs by agar diffusion well method; format: functional; conditions: time 24-48 hrs
Bacillus subtilis [18] = assay: Antibacterial activity against Bacillus subtilis incubated for 24 to 48 hrs by agar diffusion well method; format: functional; conditions: time 24-48 hrs
Pseudomonas aeruginosa [19] = assay: Antibacterial activity against Pseudomonas aeruginosa incubated for 24 to 48 hrs by agar diffusion well method; format: functional; conditions: time 24-48 hrs
Escherichia coli [20] = assay: Antibacterial activity against Escherichia coli incubated for 24 to 48 hrs by agar diffusion well method; format: functional; conditions: time 24-48 hrs
Aspergillus fumigatus = assay: Antifungal activity against Aspergillus fumigatus RCMB 02568; format: functional
[21] = test system: Syncephalastrum racemosum; assay: Antifungal activity against Syncephalastrum racemosum RCMB 05922; format: functional
Geotrichum candidum = assay: Antifungal activity against Geotrichum candidum RCMB 05097; format: functional
Candida albicans = assay: Antifungal activity against Candida albicans RCMB 05036; format: functional
A549 [22] = assay: Anticancer activity against human A549 cells by MTT assay; format: functional, cell-based
A549 [23] = assay: Antiproliferative activity against human A549 cells; format: functional, cell-based
MCF7 [24] = assay: Cytotoxicity against human MCF7 cells; format: functional, cell-based

`Cc1coc2c1C(=O)C(=O)c1c-2ccc2c1CCCC2(C)C` [TANSHINONE IIA] gave an IC50 (HepG2) of 23.9 µM.

With `COc1ccccc1N1C(=O)C2(C3=C(Nc4ccccc42)C(=O)CC(C)(C)C3)C2=C1CC(C)(C)CC2=O` (stereo not drawn) the MIC (Staphylococcus aureus [1]) was 75 µg/mL (≈ 151 µM), the MIC (Bacillus subtilis [2]) was 75 µg/mL (≈ 151 µM) and the MIC (Escherichia coli [3]) was 175 µg/mL (≈ 352 µM). For the same compound, the MIC (Pseudomonas aeruginosa [4]) was 100 µg/mL (≈ 201 µM).

`O=C(c1ccc(F)cc1)C1C(c2ccc(Br)cc2)C(CO)NC12C(=O)Nc1ccccc12` (stereo not drawn) showed an MIC (Aspergillus niger) of 20 µg/mL (≈ 40.4 µM), an MIC (Aspergillus flavus) of 30 µg/mL (≈ 60.6 µM) and an Activity [5] of 87.4%.

Compound `Cc1ccc2c(c1)C1(Nc3ccccc3NC3=C1C(=O)OC3)C(=O)N2` (stereo not drawn) has an IC50 (A549 [6]) of 1.5 µM, an IC50 (HeLa) of 9.6 µM and an IC50 (MCF7 [7]) of 2.1 µM. For the same compound, the IC50 (DU-145) was 1.3 µM.

`N#CC1=C(N)OC2=C(C(=O)c3ccccc32)C12C(=O)Nc1ccc(Cl)cc12` (stereo not drawn) gave an IC50 (MDA-MB-435) of 2.1 µM.

In the case of `CC1(C)CC(=O)C2=C(C1)OC(N)=C(C#N)C21C(=O)N(Cc2cn(Cc3ccc(Cl)cc3)nn2)c2ccc(Br)cc21` (stereo not drawn), the MIC [8] is reported as > 50 µg/mL, the MIC [9] is reported as 10.6 µg/mL (≈ 17.1 µM) and the MIC90 (Escherichia coli [10]) is reported as 2.86 µg/mL (≈ 4.61 µM). For the same compound, the MIC90 (Pseudomonas aeruginosa [11]) was 1.57 µg/mL (≈ 2.53 µM), the MIC90 (Bacillus subtilis [12]) was 3.18 µg/mL (≈ 5.13 µM) and the MIC90 (Staphylococcus aureus [13]) was 1.09 µg/mL (≈ 1.76 µM).

For `CC1(C)CC(=O)C2=C(C1)N(c1c(Br)cc(Br)cc1Br)C(=O)C21C2=C(Nc3ccccc31)C(=O)CC(C)(C)C2` (stereo not drawn), the MIC (Staphylococcus aureus [1]) was 100 µg/mL (≈ 142 µM), the MIC (Bacillus subtilis [2]) was 62.5 µg/mL (≈ 88.9 µM) and the MIC (Escherichia coli [3]) was 37.5 µg/mL (≈ 53.3 µM). It also gave an MIC (Pseudomonas aeruginosa [4]) of 50 µg/mL (≈ 71.1 µM).

In the case of `Cc1cc2c(c(=O)o1)C1(C(=O)N(Cc3cn(Cc4ccc(Cl)cc4)nn3)c3ccc(Cl)cc31)C(C#N)=C(N)O2` (stereo not drawn), the MIC [8] is reported as 5.39 µg/mL (≈ 9.6 µM) and the MIC [9] is reported as 4.81 µg/mL (≈ 8.57 µM).

`O=C1c2c(Cl)cccc2NC2(C(=O)Nc3ccccc32)N1Nc1ccccc1` (stereo not drawn) gave an MIC (Bacillus subtilis [14]) of 8 µg/mL (≈ 20.5 µM), an MIC (Bacillus pumilus) of 4 µg/mL (≈ 10.2 µM) and an MIC (Micrococcus luteus) of 8 µg/mL (≈ 20.5 µM). It also gave an MIC (Streptococcus mutans) of 8 µg/mL (≈ 20.5 µM), an MIC [15] of 4 µg/mL (≈ 10.2 µM) and an MIC (Staphylococcus aureus [16]) of 2 µg/mL (≈ 5.12 µM). It also gave an MIC (Escherichia coli [17]) of 32 µg/mL (≈ 81.9 µM) and an MIC (Enterococcus faecalis) of 128 µg/mL (≈ 328 µM).

With `CCOC(=O)N1C/C(=C\c2ccc(OC)cc2)C(=O)[C@@]2(C1)[C@H](c1ccc(OC)cc1)[C@H]1CCCN1[C@]21C(=O)Nc2ccccc21` the MIC (Streptococcus pneumoniae) was 0.98 µg/mL (≈ 1.61 µM), the MIC (Bacillus subtilis [18]) was 0.015 µg/mL (≈ 0.0247 µM) and the MIC (Pseudomonas aeruginosa [19]) was “inactive”. It also gave an MIC (Escherichia coli [20]) of 15.6 µg/mL (≈ 25.7 µM), an MIC (Aspergillus fumigatus) of 1.95 µg/mL (≈ 3.21 µM) and an MIC [21] of 0.98 µg/mL (≈ 1.61 µM). For the same compound, the MIC (Geotrichum candidum) was 0.49 µg/mL (≈ 0.806 µM) and the MIC (Candida albicans) was “inactive”.

With `C#CCN1C(=O)[C@]2(c3ccccc31)N(C)C[C@@](C#N)(C(=O)c1c[nH]c3ccccc13)[C@@]21C(=O)Nc2ccccc21` the IC50 (A549 [22]) was 50 µM.

Compound `Cc1ccc2c(c1)C1(C(=O)N2)N2CSCC2C(c2ncc[nH]2)C1(C#N)C(=O)c1c[nH]c2ccccc12` (stereo not drawn) has an IC50 (A549 [23]) of 66.3 µM.

With `Cc1ccc(Cn2cc(CN3C(=O)C4(C(C#N)=C(N)OC5=C4C(=O)CC(C)(C)C5)c4cc(Br)ccc43)nn2)cc1` (stereo not drawn) the MIC [8] was 29.2 µg/mL (≈ 48.8 µM) and the MIC [9] was 8.89 µg/mL (≈ 14.8 µM).

Compound `CCOC(=O)C1=C(C(=O)OCC)C2(NC1(C(=O)OCC)C(=O)OCC)C(=O)N(C)c1ccc(C)cc12` (stereo not drawn) has an IC50 (MCF7 [24]) of 20.8 µM.

For `CC1(C)CC(=O)C2=C(C1)OC(N)=C(C#N)C21C(=O)N(Cc2cn(Cc3ccc(Cl)cc3)nn2)c2ccc(Cl)cc21` (stereo not drawn), the MIC [8] was > 50 µg/mL, the MIC [9] was 8.07 µg/mL (≈ 14 µM) and the MIC90 (Escherichia coli [10]) was 1.78 µg/mL (≈ 3.09 µM). For the same compound, the MIC90 (Pseudomonas aeruginosa [11]) was 5.29 µg/mL (≈ 9.19 µM), the MIC90 (Bacillus subtilis [12]) was 1.14 µg/mL (≈ 1.98 µM) and the MIC90 (Staphylococcus aureus [13]) was 3.55 µg/mL (≈ 6.17 µM).

For `CC1(C)CC(=O)C2=C(C1)N(c1ccccc1F)C(=O)C21C2=C(Nc3ccccc31)C(=O)CC(C)(C)C2` (stereo not drawn), the MIC (Staphylococcus aureus [1]) was “inactive”, the MIC (Bacillus subtilis [2]) was 75 µg/mL (≈ 155 µM) and the MIC (Escherichia coli [3]) was 37.5 µg/mL (≈ 77.4 µM). It also gave an MIC (Pseudomonas aeruginosa [4]) of 50 µg/mL (≈ 103 µM).

In the case of `Cc1cc2c(c(=O)o1)C1(C(=O)N(Cc3cn(Cc4ccc(Cl)cc4)nn3)c3ccccc31)C(C#N)=C(N)O2` (stereo not drawn), the MIC [8] is reported as 5.21 µg/mL (≈ 9.89 µM) and the MIC [9] is reported as 4.39 µg/mL (≈ 8.33 µM).

With `CCOC(=O)N1C/C(=C\c2ccc(F)cc2F)C(=O)[C@@]2(C1)[C@H](c1ccc(F)cc1F)[C@H]1CCCN1[C@]21C(=O)Nc2ccccc21` the MIC (Streptococcus pneumoniae) was 0.015 µg/mL (≈ 0.0242 µM), the MIC (Bacillus subtilis [18]) was 0.015 µg/mL (≈ 0.0242 µM) and the MIC (Pseudomonas aeruginosa [19]) was “inactive”. The MIC (Escherichia coli [20]) was 1.95 µg/mL (≈ 3.15 µM), the MIC (Aspergillus fumigatus) was 7.81 µg/mL (≈ 12.6 µM) and the MIC [21] was 1.95 µg/mL (≈ 3.15 µM). The MIC (Geotrichum candidum) was 0.03 µg/mL (≈ 0.0484 µM) and the MIC (Candida albicans) was “inactive”.

In the case of `CC(C)CC1NC2(C(=O)Nc3ccccc32)C(C(=O)c2ccc(F)cc2)C1c1ccc(Br)cc1` (stereo not drawn), the MIC (Aspergillus niger) is reported as 30 µg/mL (≈ 57.5 µM) and the MIC (Aspergillus flavus) is reported as 20 µg/mL (≈ 38.4 µM).

For `N#CC1=C(N)OC2=C(C(=O)c3ccccc32)C12C(=O)Nc1ccc(Br)cc12` (stereo not drawn), the IC50 (MDA-MB-435) was 1.8 µM.

Compound `CC1(C)CC(=O)C2=C(C1)N(c1ccccc1S)C(=O)C21C2=C(Nc3ccccc31)C(=O)CC(C)(C)C2` (stereo not drawn) has an MIC (Staphylococcus aureus [1]) of 225 µg/mL (≈ 451 µM), an MIC (Bacillus subtilis [2]) of 2.5 µg/mL (≈ 5.01 µM) and an MIC (Escherichia coli [3]) of 188 µg/mL (≈ 376 µM). It also gave an MIC (Pseudomonas aeruginosa [4]) of 150 µg/mL (≈ 301 µM).
